Assay results: ChEMBL document CHEMBL3400033, “Molecular docking and antiviral activity of N-substituted benzyl/phenyl-2-(3,4-dimethyl-5,5-dioxidopyrazolo[4,3-c][1,2]benzothiazin-2(4H)-yl)acetamides” (Bioorg Med Chem Lett, 2015)

Assays:
Vero = assay: Cytotoxicity against african green monkey Vero cells assessed as reduction in cell viability after 5 days by Cell Titer 96 Aqueous One Solution cell proliferation assay; format: cell-based; conditions: Chlorocebus sabaeus, 120 h
[1] = tested on: Human immunodeficiency virus 1; assay: Antiviral activity against HIV1 LAV-1 infected in human PBMC cells after 6 days by RT assay; format: functional, organism-based; conditions: Human immunodeficiency virus 1, LAV-1, PBMC, 144 h
PBMC = assay: Cytotoxicity against human PBMC cells assessed as reduction in cell viability after 5 days by Cell Titer 96 Aqueous One Solution cell proliferation assay; format: cell-based; conditions: 120 h
CCRF-CEM = assay: Cytotoxicity against human CEM cells assessed as reduction in cell viability after 5 days by Cell Titer 96 Aqueous One Solution cell proliferation assay; format: cell-based; conditions: 120 h
[2] = tested on: Human immunodeficiency virus 1; assay: Antiviral activity against HIV1; format: functional, organism-based

Cc1c2c(nn1CC(=O)NCc1ccccc1Br)-c1ccccc1S(=O)(=O)N2C
IC50 (Vero): 36.5 µM
EC50 [1]: 16.7 µM
EC90 [1]: 87.5 µM
IC50 (PBMC): 63.1 µM
IC50 (CCRF-CEM): 38.1 µM

COc1ccccc1CNC(=O)Cn1nc2c(c1C)N(C)S(=O)(=O)c1ccccc1-2
IC50 (Vero): > 100 µM
EC50 [1]: 17.2 µM
EC90 [1]: 60.3 µM
IC50 (PBMC): ≥ 100 µM
IC50 (CCRF-CEM): > 100 µM

COc1ccc(NC(=O)Cn2nc3c(c2C)N(C)S(=O)(=O)c2ccccc2-3)c(OC)c1
IC50 (Vero): > 100 µM
EC50 [1]: > 100 µM
EC90 [1]: > 100 µM
IC50 (PBMC): > 100 µM
IC50 (CCRF-CEM): > 100 µM

COc1cccc(CNC(=O)Cn2nc3c(c2C)N(C)S(=O)(=O)c2ccccc2-3)c1
IC50 (Vero): 31.1 µM
EC50 [1]: 21.1 µM
EC90 [1]: 92 µM
IC50 (PBMC): 18.7 µM
IC50 (CCRF-CEM): 28.8 µM

Cc1c2c(nn1CC(=O)NCc1ccccc1F)-c1ccccc1S(=O)(=O)N2C
IC50 (Vero): 96.1 µM
EC50 [1]: 57.5 µM
EC90 [1]: ≥ 100 µM
IC50 (PBMC): 87.5 µM
IC50 (CCRF-CEM): 82 µM

Cc1ccccc1CNC(=O)Cn1nc2c(c1C)N(C)S(=O)(=O)c1ccccc1-2
IC50 (Vero): > 100 µM
EC50 [1]: ≥ 100 µM
EC90 [1]: > 100 µM
IC50 (PBMC): > 100 µM
IC50 (CCRF-CEM): > 100 µM

Cc1c2c(nn1CC(=O)NCc1ccccc1Cl)-c1ccccc1S(=O)(=O)N2C
IC50 (Vero): 38.7 µM
EC50 [1]: 15.9 µM
EC90 [1]: 28.5 µM
IC50 (PBMC): 74.2 µM
IC50 (CCRF-CEM): 68.4 µM

C/C(=N\NC(=O)CN1c2c(-c3ccccc3)n[nH]c2-c2ccccc2S1(=O)=O)c1cc(Cl)sc1Cl
EC50 [2]: 3.2 µM

Cc1c2c(nn1CC(=O)NCc1ccc(F)cc1)-c1ccccc1S(=O)(=O)N2C
IC50 (Vero): > 100 µM
EC50 [1]: 22.4 µM
EC90 [1]: ≥ 100 µM
IC50 (PBMC): > 100 µM
IC50 (CCRF-CEM): 41.9 µM

Cc1c2c(nn1CC(=O)Nc1ccccc1)-c1ccccc1S(=O)(=O)N2C
IC50 (Vero): 6.8 µM
EC50 [1]: 6.8 µM
EC90 [1]: 16.3 µM
IC50 (PBMC): 7.7 µM
IC50 (CCRF-CEM): < 1 µM

Cc1c2c(nn1CC(=O)Nc1cccc(Br)c1)-c1ccccc1S(=O)(=O)N2C
IC50 (Vero): 7.2 µM
EC50 [1]: 6.3 µM
EC90 [1]: 15.3 µM
IC50 (PBMC): 8.1 µM
IC50 (CCRF-CEM): 5.2 µM

Cc1c2c(nn1CC(=O)Nc1ccccc1Br)-c1ccccc1S(=O)(=O)N2C
IC50 (Vero): 8.2 µM
EC50 [1]: 6.5 µM
EC90 [1]: 15.7 µM
IC50 (PBMC): 2.4 µM
IC50 (CCRF-CEM): 6 µM

Cc1c2c(nn1CC(=O)Nc1ccccc1F)-c1ccccc1S(=O)(=O)N2C
IC50 (Vero): 28.2 µM
EC50 [1]: 7.6 µM
EC90 [1]: 35.4 µM
IC50 (PBMC): 18 µM
IC50 (CCRF-CEM): 9.5 µM

COc1cccc(NC(=O)Cn2nc3c(c2C)N(C)S(=O)(=O)c2ccccc2-3)c1
IC50 (Vero): ≥ 100 µM
EC50 [1]: 7.2 µM
EC90 [1]: 17.3 µM
IC50 (PBMC): 10.5 µM
IC50 (CCRF-CEM): 9.3 µM

COc1ccc(CNC(=O)Cn2nc3c(c2C)N(C)S(=O)(=O)c2ccccc2-3)cc1
IC50 (Vero): 73 µM
EC50 [1]: 18.6 µM
EC90 [1]: ≥ 100 µM
IC50 (PBMC): > 100 µM
IC50 (CCRF-CEM): > 100 µM

Cc1ccc(CNC(=O)Cn2nc3c(c2C)N(C)S(=O)(=O)c2ccccc2-3)cc1
IC50 (Vero): 63.1 µM
EC50 [1]: 9.9 µM
EC90 [1]: 77.7 µM
IC50 (PBMC): 52.2 µM
IC50 (CCRF-CEM): > 100 µM
